Results published in patent publication US8026218B2, “Bifunctional analgesic compounds for opioid receptor agonists and neurokinin-1 receptor antagonists” (The University of Arizona, priority 2006, dated 2011).
Like-named read-outs stand apart in the source and are kept apart here.

Assays:
[1] = molecular target: T1, human δ opioid receptors (hDOR) (Homo sapiens, UniProt P41143); assay: [35S]GTP-γ-S binding assay, hDOR; assay type: biochemical
T1 construct: expressed in transfected cells; host or cells: HN9.10 neuroblastoma cell line, pCDNA3, neomycin-selected clones
T1 sequence (P41143 whole entry): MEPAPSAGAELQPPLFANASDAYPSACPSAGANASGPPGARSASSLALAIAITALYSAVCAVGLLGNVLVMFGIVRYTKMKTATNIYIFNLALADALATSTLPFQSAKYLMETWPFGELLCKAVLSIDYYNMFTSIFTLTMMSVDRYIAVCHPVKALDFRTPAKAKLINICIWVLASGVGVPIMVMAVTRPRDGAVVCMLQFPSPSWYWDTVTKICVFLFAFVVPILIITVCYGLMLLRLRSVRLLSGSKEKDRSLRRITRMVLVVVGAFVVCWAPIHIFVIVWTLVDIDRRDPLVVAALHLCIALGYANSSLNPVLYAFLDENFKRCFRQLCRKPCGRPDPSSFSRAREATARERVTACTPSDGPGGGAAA

[2] = molecular target: T1, human δ opioid receptors (hDOR); assay: Radioligand competition binding, [3H]DPDPE, hDOR membranes
δ opioid receptors (MVD) = molecular target: T2, δ opioid receptors (MVD) (Mus musculus, UniProt P32300); assay: Mouse isolated vas deferens (MVD) assay, opioid agonist
T2 construct: from tissue; host or cells: mouse (ICR) isolated vas deferens
T2 sequence (P32300 whole entry): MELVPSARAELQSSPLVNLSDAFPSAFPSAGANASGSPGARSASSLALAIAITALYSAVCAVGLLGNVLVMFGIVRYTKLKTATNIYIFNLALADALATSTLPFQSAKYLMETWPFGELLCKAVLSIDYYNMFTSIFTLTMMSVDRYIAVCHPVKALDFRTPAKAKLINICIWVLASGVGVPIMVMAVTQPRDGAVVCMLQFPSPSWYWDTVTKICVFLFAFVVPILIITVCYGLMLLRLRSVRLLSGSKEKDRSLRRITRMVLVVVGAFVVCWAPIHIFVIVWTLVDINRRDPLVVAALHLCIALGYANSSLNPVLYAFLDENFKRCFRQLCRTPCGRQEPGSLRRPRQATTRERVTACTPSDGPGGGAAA

[3] = molecular target: T3, Substance P receptors (guinea pig NK1) (Cavia porcellus, UniProt P30547); assay: Guinea pig isolated ileum (GPI) assay with substance P stimulation in presence of 1 μM naloxone; details: for GPI/LMMP SP Agonist (IC50; nM): Table 39, at 100 nM
T3 construct: from tissue; host or cells: guinea pig (Hartley) ileum LMMP, 1 μM naloxone present
T3 sequence (P30547 whole entry): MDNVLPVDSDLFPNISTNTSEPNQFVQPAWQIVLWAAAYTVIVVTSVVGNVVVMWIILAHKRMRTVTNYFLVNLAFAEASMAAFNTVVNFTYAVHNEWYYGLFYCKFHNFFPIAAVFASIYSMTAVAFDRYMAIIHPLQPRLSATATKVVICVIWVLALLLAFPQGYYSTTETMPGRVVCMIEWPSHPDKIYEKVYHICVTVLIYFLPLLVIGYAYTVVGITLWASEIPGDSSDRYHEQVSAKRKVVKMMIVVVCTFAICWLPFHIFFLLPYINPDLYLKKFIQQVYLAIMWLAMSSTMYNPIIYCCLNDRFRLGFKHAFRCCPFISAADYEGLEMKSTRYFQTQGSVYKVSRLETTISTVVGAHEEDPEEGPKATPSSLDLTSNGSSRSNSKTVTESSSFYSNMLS
Procedure: Testing stopped at 1 mM concentrations of the test compound.
Analysis of GPI and MVD assays. For opioid data analysis, percentage inhibition was calculated using the average tissue contraction height for 1 min preceding the addition of the agonist divided by the contraction height 3 min after exposure to the dose of agonist. […] IC50 and Emax estimates were determined by computerized nonlinear least-squares analysis (the pharmacological statistics package FlashCalc: Dr. Michael Ossipov, University of Arizona, Tucson, Ariz.). […] A50 values represent the mean of not less than 4 tissues. A50 and Emax estimates were determined by computerized nonlinear least-squares analysis (FlashCalc).

μ opioid receptors (GPI) = assay: Guinea pig isolated ileum (GPI) assay, opioid agonist;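 also: inhibition of electrically evoked contractions (0.1 Hz, 0.4 msec, supramaximal voltage) in organ baths at 37 °C, contraction height 3 min after each cumulative dose versus the 1 min before dosing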
rat NK1 (rNK1) receptor = molecular target: T4, rat NK1 (rNK1) receptor (Rattus norvegicus, UniProt P14600); assay: Radioligand competition binding, [3H]substance P, rNK1/CHO membranes
T4 construct: expressed in transfected cells; host or cells: CHO (rNK-1/CHO cell line from Dr. James Krause)
T4 sequence (P14600 whole entry): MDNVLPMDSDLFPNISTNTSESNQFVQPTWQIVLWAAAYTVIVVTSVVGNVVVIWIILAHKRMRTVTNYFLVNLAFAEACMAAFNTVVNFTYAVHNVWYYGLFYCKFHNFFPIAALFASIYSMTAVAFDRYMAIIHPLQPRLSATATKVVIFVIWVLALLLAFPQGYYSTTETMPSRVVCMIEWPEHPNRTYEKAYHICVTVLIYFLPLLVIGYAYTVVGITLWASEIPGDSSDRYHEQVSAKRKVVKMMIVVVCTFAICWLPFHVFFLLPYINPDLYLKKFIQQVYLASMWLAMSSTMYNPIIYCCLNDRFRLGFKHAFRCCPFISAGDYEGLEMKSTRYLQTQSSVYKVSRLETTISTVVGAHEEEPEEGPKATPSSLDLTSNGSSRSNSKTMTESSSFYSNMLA

[4] = molecular target: T5, human NK1 receptor (hNK1) (Homo sapiens, UniProt P25103); assay: Radioligand competition binding, [3H]-Substance P, hNK1
T5 construct: expressed in transfected cells
T5 sequence (P25103 whole entry): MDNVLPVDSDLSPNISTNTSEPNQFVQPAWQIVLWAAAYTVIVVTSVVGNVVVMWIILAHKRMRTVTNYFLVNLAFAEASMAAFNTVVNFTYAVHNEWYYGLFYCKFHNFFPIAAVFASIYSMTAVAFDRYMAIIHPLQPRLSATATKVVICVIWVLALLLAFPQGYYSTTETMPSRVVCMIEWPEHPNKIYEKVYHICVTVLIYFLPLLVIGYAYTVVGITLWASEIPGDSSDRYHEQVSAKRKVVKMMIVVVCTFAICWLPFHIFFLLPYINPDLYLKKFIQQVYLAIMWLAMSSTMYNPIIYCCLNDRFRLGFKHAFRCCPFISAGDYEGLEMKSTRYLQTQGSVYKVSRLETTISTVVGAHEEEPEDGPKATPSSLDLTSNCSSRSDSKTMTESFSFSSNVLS

[5] = molecular target: T6, rat μ opioid receptors (rMOR) (Rattus norvegicus, UniProt P33535); assay: biochemical; assay type: biochemical; details: Table 39; read-out: GTP binding rMOR Emax
T6 construct: expressed in transfected cells; host or cells: HN9.10 neuroblastoma cell line, pCDNA3, neomycin-selected clones
T6 sequence (P33535 whole entry): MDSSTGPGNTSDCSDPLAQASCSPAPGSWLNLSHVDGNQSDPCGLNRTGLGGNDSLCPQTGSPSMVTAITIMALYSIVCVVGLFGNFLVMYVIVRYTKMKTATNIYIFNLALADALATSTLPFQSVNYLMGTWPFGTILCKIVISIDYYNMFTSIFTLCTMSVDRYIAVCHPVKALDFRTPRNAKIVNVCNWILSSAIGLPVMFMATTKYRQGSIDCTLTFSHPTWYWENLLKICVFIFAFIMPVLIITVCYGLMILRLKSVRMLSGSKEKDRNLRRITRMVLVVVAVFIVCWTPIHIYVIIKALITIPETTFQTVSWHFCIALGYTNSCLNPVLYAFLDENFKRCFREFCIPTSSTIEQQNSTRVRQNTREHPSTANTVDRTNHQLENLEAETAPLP

[6] = molecular target: T6, rat μ opioid receptors (rMOR); assay: Radioligand competition binding, [3H]DAMGO, rMOR membranes
[7] = Table 39, read-out: GTP binding hDOR Emax
[8] = Table 39, read-out: GPI/LMMP opioid(mu) agonist (IC50; nM)
[9] = Table 30, read-out: GPI/LMMP Opioid(m) Agonist (IC50; nM)

With `CC(C)C[C@H](NC(=O)[C@@H]1CCCN1C(=O)[C@H](CC[S+](C)[O-])NC(=O)[C@H](Cc1ccccc1)NC(=O)CNC(=O)[C@@H](C)NC(=O)[C@@H](N)Cc1ccc(O)cc1)C(=O)N[C@@H](Cc1c[nH]c2ccccc12)C(=O)OCc1cc(C(F)(F)F)cc(C(F)(F)F)c1` (stereo partly drawn) [TY023, H-Tyr-D-Ala-Gly-Phe-Met(O)-Pro-Leu-Trp-O-3,5-Bzl(CF3)2] the “LogEC50, hDOR, [35S]GTP-γ-S binding” value [1] was −8.73 ± 0.20, the EC50 ([1]; Table 27, read-out: GTP binding hDOR EC50) was 1.8 nM and the Emax ([1]; Table 27, read-out: GTP binding hDOR Emax (%)) was 52.8%. The EC50 ([1]; Table 39, read-out: GTP binding hDOR EC50) was 1.8 nM, the Emax [1, 7] was 52.8% and the Emax ([1]; net total bound/basal binding × 100, read-out: Emax, hDOR, [35S]GTP-γ-S binding) was 53%. For the same molecule, the EC50 ([1]; read-out: EC50, hDOR, [35S]GTP-γ-S binding) was 1.8 nM, the “LogIC50, hDOR, [3H]DPDPE” value ([2]; membranes from transfected HN9.10 cells) was −7.92 ± 0.04 and the Ki ([2]; read-out: Ki, hDOR, [3H]DPDPE) was 4.8 nM. The IC50 (δ opioid receptors (MVD); Table 28, read-out: MVD Opioid (d) Agonist (IC50; nM)) was 33 nM, the IC50 (δ opioid receptors (MVD); Table 39, read-out: MVD opioid(delta) agonist (IC50; nM)) was 33 nM and the IC50 (δ opioid receptors (MVD); electrically stimulated isolated tissue, read-out: MVD (δ), IC50) was 33 nM. For the same molecule, the Kb ([3]; Substance P antagonist, GPI, Ke, in the presence of 1 μM naloxone) was 7.8 ± 4 nM, the IC50 (μ opioid receptors (GPI); Table 28, read-out: GPI/LMMP Opioid(m) Agonist (IC50; nM)) was 154 nM and the IC50 (μ opioid receptors (GPI); [8]) was 154 nM. For the same molecule, the IC50 (μ opioid receptors (GPI); electrically stimulated isolated tissue, read-out: GPI (μ), IC50) was 154 nM, the IC50 (rat NK1 (rNK1) receptor; IC50, rNK1, Substance P radioligand, membranes from transfected CHO cells) was 54.5 nM and the Ki (rat NK1 (rNK1) receptor; Ki, rNK1, text) was 54.5 nM. For the same molecule, the Ki (rat NK1 (rNK1) receptor; Table 39, read-out: Affinity rNK1 (Ki; nM)) was 0.2 nM.

Molecule `CSCC[C@H](NC(=O)[C@H](Cc1ccccc1)NC(=O)CNC(=O)[C@@H](C)NC(=O)[C@@H](N)Cc1c(C)cc(O)cc1C)C(=O)N1CCC[C@H]1C(=O)N[C@@H](CC(C)C)C(=O)N[C@@H](Cc1c[nH]c2ccccc12)C(=O)NCc1cc(C(F)(F)F)cc(C(F)(F)F)c1` [TY032] has an EC50 ([1]; GTP binding hDOR EC50) of 1.2 nM, an Emax ([1]; read-out: GTP binding hDOR Emax) of 24% and a Ki [2] of 0.12 nM. For the same molecule, the IC50 (δ opioid receptors (MVD)) was 1.82 nM, the “GPI/LMMP Substance P Agonist (IC50; nM)” value ([3]; Table 30) was “None” and the “GPI/LMMP SP Agonist (IC50; nM)” value [3] was “none”. For the same molecule, the Ki [4] was 0.008 nM, the IC50 (μ opioid receptors (GPI); [9]) was 18.6 nM and the IC50 (μ opioid receptors (GPI); [8]) was 18.6 nM. For the same molecule, the Emax [5] was 74%.

With `CSCC[C@H](NC(=O)[C@H](Cc1ccccc1)NC(=O)CNC(=O)[C@@H](C)NC(=O)[C@@H](N)Cc1c(C)cc(O)cc1C)C(=O)N1CCC[C@H]1C(=O)N[C@@H](CC(C)C)C(=O)N[C@@H](Cc1c[nH]c2ccccc12)C(=O)NCc1ccccc1` [TY034] the Emax [1, 7] was 21%, the Ki [2] was 0.1 nM and the IC50 (δ opioid receptors (MVD)) was 6.85 nM. For the same molecule, the Kb ([3]; GPI/LMMP Substance P Antagonist (Ke; nM), Table 30) was 36.9 nM, the “GPI/LMMP Substance P Agonist (IC50; nM)” value ([3]; Table 30) was “None” and the “GPI/LMMP SP Agonist (IC50; nM)” value [3] was “none”. For the same molecule, the Ki [6] was 0.14 nM, the IC50 (μ opioid receptors (GPI); [9]) was 11.4 nM and the IC50 (μ opioid receptors (GPI); [8]) was 11.4 nM. For the same molecule, the Emax [5] was 58% and the Ki (rat NK1 (rNK1) receptor; Affinity rNK1 (Ki; nM), Table 39) was 317 nM.

For `CCCC[C@H](NC(=O)[C@H](Cc1ccccc1)NC(=O)CNC(=O)[C@@H](C)NC(=O)[C@@H](N)Cc1c(C)cc(O)cc1C)C(=O)N1CCC[C@H]1C(=O)N[C@@H](CC(C)C)C(=O)N[C@@H](Cc1c[nH]c2ccccc12)C(=O)N(C)Cc1cc(C(F)(F)F)cc(C(F)(F)F)c1` [TY052], the Ki ([2]; Table 31, read-out: Affinity hDOR (Ki; nM)) was 0.46 nM, the Ki ([2]; Table 39, read-out: Affinity hDOR (Ki; nM)) was 0.46 nM and the Ki ([4]; Table 31, read-out: Affinity hNK1 (Ki; nM)) was 0.21 nM. The Ki ([4]; Table 39, read-out: Affinity hNK1 (Ki; nM)) was 0.21 nM.
